According to patent CN116462616A, “炔酰胺类化合物及其应用” (Jinan University, priority 2022, dated 2023):

Key:
[1] = biological target: T1, bovine serum albumin [牛血清蛋白] (Bos taurus, UniProt P02769); assay: Covalent modification of amino acid residues of a pure protein (gel fluorescence after click chemistry); type: binding; conditions: 10.0 μM probe, 1 mg/mL protein, 37 °C, 3 h
[2] = tested on: proteins of HepG2 cells [人源肝癌细胞HepG2]; assay: Covalent modification of protein amino acid residues in tumour cells (live-cell labelling, gel fluorescence); type: cell-based, human; conditions: HepG2, 50 μM probe, 37 °C, 3 h
[3] = biological target: T1, bovine serum albumin [牛血清蛋白]; assay: Selective modification of acidic amino acid residues of a pure protein (biological mass spectrometry); type: binding; conditions: 100 μM, 37 °C, 0.5 h
[4] = tested on: HepG2 cells [HepG2细胞]; assay: Selective modification of acidic amino acid residues in cells (biological mass spectrometry); type: cell-based, human; conditions: 100 μM, 37 °C, 8 h
[5] = biological target: T2, ALDH1 (Homo sapiens, UniProt P00352); assay: Pull-down and western blot, ALDH1; type: binding; conditions: 50 μM, HepG2/H3255 cells, 37 °C, 5 h
T2 construct: 50μM分子探针YN-1和YN-4与HepG2/H3255细胞于37℃孵育5h; endogenous in cells; host or cells: HepG2/H3255
T2 sequence (P00352 1-501): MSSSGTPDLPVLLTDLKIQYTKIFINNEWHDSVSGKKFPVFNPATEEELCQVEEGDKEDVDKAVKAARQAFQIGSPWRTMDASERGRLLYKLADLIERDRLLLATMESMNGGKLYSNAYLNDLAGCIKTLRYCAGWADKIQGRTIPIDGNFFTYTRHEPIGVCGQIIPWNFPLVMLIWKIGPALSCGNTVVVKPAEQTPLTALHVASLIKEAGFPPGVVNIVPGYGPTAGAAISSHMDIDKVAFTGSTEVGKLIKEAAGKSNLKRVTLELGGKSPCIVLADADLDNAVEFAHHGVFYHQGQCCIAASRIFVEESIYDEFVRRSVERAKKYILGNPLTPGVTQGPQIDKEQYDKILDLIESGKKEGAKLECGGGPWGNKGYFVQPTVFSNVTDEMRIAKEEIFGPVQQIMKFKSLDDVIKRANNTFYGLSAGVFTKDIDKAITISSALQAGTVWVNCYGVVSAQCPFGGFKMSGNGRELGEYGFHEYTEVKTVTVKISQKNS

[6] = biological target: T3, GAPDH (Homo sapiens, UniProt P04406); assay: Pull-down and western blot, GAPDH; type: binding; conditions: 50 μM, HepG2/H3255 cells, 37 °C, 5 h
T3 construct: 50μM分子探针YN-1和YN-4与HepG2/H3255细胞于37℃孵育5h; endogenous in cells; host or cells: HepG2/H3255

[7] = biological target: T4, MEK2 (Homo sapiens, UniProt P36507); assay: Pull-down and western blot, MEK2; type: binding; conditions: 50 μM, HepG2/H3255 cells, 37 °C, 5 h
T4 construct: 50μM分子探针YN-1和YN-4与HepG2/H3255细胞于37℃孵育5h; endogenous in cells; host or cells: HepG2/H3255

[8] = biological target: T5, ECH1 (Homo sapiens, UniProt Q13011); assay: Pull-down and western blot, ECH1; type: binding; conditions: 50 μM, HepG2/H3255 cells, 37 °C, 5 h
T5 construct: 50μM分子探针YN-1和YN-4与HepG2/H3255细胞于37℃孵育5h; endogenous in cells; host or cells: HepG2/H3255
T5 sequence (Q13011 34-328): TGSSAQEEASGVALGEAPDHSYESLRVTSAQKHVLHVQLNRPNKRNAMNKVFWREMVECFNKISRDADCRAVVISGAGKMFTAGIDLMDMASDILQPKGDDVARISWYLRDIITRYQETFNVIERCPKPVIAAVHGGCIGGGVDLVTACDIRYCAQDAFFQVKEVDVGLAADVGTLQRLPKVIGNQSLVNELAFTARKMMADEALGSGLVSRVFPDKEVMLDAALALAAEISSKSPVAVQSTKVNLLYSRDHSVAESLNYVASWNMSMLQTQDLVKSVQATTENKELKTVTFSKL

T1 sequence (P02769 25-607): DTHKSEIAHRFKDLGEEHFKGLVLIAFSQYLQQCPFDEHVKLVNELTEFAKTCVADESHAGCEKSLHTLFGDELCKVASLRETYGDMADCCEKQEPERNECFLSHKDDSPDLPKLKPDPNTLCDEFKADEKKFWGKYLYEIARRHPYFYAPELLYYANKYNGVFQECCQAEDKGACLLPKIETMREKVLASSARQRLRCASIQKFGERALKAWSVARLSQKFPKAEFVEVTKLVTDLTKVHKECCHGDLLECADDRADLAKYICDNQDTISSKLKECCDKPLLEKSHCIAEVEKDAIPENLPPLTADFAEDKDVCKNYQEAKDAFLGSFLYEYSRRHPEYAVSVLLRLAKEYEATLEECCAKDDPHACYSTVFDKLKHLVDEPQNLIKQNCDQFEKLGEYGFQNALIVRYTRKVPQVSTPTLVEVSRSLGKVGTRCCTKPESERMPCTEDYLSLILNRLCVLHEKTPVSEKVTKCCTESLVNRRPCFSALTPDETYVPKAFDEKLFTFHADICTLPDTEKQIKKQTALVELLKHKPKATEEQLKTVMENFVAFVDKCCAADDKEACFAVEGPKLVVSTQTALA
T4 sequence (P36507 whole entry): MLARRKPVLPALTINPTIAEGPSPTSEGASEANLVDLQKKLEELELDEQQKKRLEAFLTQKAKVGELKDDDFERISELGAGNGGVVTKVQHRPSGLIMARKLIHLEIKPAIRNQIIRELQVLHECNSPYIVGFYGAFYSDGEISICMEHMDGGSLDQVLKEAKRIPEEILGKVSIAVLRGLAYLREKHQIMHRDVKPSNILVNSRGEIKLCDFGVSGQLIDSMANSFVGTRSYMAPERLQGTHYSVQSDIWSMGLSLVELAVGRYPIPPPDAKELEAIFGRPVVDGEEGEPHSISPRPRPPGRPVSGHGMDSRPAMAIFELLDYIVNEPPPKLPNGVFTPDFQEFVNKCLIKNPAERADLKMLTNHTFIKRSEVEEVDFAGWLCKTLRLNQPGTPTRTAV
T3 sequence (P04406 whole entry): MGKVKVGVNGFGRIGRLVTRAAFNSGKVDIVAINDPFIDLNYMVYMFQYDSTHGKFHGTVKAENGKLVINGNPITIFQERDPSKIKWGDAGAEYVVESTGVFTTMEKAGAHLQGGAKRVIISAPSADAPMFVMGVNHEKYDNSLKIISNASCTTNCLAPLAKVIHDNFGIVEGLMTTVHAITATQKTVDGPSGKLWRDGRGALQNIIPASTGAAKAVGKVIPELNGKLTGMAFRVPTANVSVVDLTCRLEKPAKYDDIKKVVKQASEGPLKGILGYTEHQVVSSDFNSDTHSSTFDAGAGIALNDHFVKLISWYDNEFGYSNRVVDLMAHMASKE

SMILES	covalent labelling of bovine serum albumin [1]	covalent labelling of proteins at live-cell level [2]	selective modification of acidic amino acid residues (aspartic acid and glutamic acid) [3]	selective modification of acidic amino acid residues (aspartic acid and glutamic acid) [4]	targeted binding to ALDH1 [5]	targeted binding to GAPDH [6]	targeted binding to MEK2 [7]	targeted binding to ECH1 [8]
C#Cc1ccc(S(=O)(=O)N(C)C#C)cc1 [YN-1]	能够共价标记牛血清蛋白	能够在活细胞水平共价标记蛋白	可选择性修饰酸性氨基酸残基天冬氨酸残基及谷氨酸残基	可选择性修饰酸性氨基酸残基天冬氨酸残基及谷氨酸残基	能靶向结合	能靶向结合	能靶向结合	能靶向结合
C#Cc1ccc(OCc2ccc(S(=O)(=O)N(C)C#C)cc2)cc1 [YN-3]	能够共价标记牛血清蛋白	能够在活细胞水平共价标记蛋白	–	–	–	–	–	–
C#Cc1ccc(C#CN(C)S(=O)(=O)c2ccc(C)cc2)cc1 [YN-2]	能够共价标记牛血清蛋白	能够在活细胞水平共价标记蛋白	–	–	–	–	–	–
